Source: the supplement of paper PMC10307832

Legend:
Assay in all cases: relative viability (nuclei count vs DMSO), 5 days (fraction); higher = more cells survive
IPA-3 + Navitoclax = compound: C1=CC=C2C(=C1)C=CC(=C2SSC3=C(C=CC4=CC=CC=C43)O)O [IPA-3] + CC1(C)CCC(c2ccc(Cl)cc2)=C(CN2CCN(c3ccc(C(=O)NS(=O)(=O)c4ccc(N[C@H](CCN5CCOCC5)CSc5ccccc5)c(S(=O)(=O)C(F)(F)F)c4)cc3)CC2)C1 [Navitoclax] (partner 0.5 µM)
Method in brief: (§1)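 Dosing by pin tool came one day after lung cancer cell lines were seeded in 1536-well plates, using either one drug or a fixed anchor-drug dose plus five library-drug doses (not always all listed) in √10 steps. After 5 days, nuclei were counted on 4× images. Relative viability is treated-well nuclei count divided by vehicle-well nuclei count, and values are medians of duplicate plates.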

Doramapimod + Luminespib = compound: Cc1ccc(-n2nc(C(C)(C)C)cc2NC(=O)Nc2ccc(OCCN3CCOCC3)c3ccccc23)cc1 [Doramapimod] + CCNC(=O)c1noc(-c2cc(C(C)C)c(O)cc2O)c1-c1ccc(CN2CCOCC2)cc1 [Luminespib] (partner 0.01 µM)
Method in brief: as §1

IPA-3 + Phenformin = compound: C1=CC=C2C(=C1)C=CC(=C2SSC3=C(C=CC4=CC=CC=C43)O)O [IPA-3] + N=C(N)NC(=N)NCCc1ccccc1 [Phenformin] (partner 250 µM)
Method in brief: as §1

Doramapimod + Trametinib = compound: Cc1ccc(-n2nc(C(C)(C)C)cc2NC(=O)Nc2ccc(OCCN3CCOCC3)c3ccccc23)cc1 [Doramapimod] + CC(=O)Nc1cccc(-n2c(=O)n(C3CC3)c(=O)c3c(Nc4ccc(I)cc4F)n(C)c(=O)c(C)c32)c1 [Trametinib] (partner 0.02 µM)
Method in brief: as §1

| Cell Line | relative viability (IPA-3 + Navitoclax; first compound 0.2 µM) | relative viability (IPA-3 + Navitoclax; first compound 0.6325 µM) | relative viability (IPA-3 + Navitoclax; first compound 2 µM) | relative viability (IPA-3 + Navitoclax; first compound 6.325 µM) | relative viability (IPA-3 + Navitoclax; first compound 20 µM) | relative viability (Doramapimod + Luminespib; first compound 0.02 µM) | relative viability (Doramapimod + Luminespib; first compound 0.06325 µM) | relative viability (Doramapimod + Luminespib; first compound 0.2 µM) | relative viability (Doramapimod + Luminespib; first compound 0.6325 µM) | relative viability (Doramapimod + Luminespib; first compound 2 µM) | relative viability (IPA-3 + Phenformin; first compound 0.2 µM) | relative viability (IPA-3 + Phenformin; first compound 0.6325 µM) | relative viability (IPA-3 + Phenformin; first compound 2 µM) | relative viability (IPA-3 + Phenformin; first compound 6.325 µM) | relative viability (IPA-3 + Phenformin; first compound 20 µM) | relative viability (Doramapimod + Trametinib; first compound 0.02 µM) | relative viability (Doramapimod + Trametinib; first compound 0.06325 µM) | relative viability (Doramapimod + Trametinib; first compound 0.2 µM) | relative viability (Doramapimod + Trametinib; first compound 0.6325 µM) | relative viability (Doramapimod + Trametinib; first compound 2 µM) |
| --- | --- | --- | --- | --- | --- | --- | --- | --- | --- | --- | --- | --- | --- | --- | --- | --- | --- | --- | --- | --- |
| NCI-H1993 | 0.973 | 0.911 | 0.896 | 0.894 | 0.838 | 1.85 | 0.87 | 0.64 | 0.975 | 0.744 | 0.467 | 0.515 | 0.538 | 0.547 | 0.514 | 0.458 | 0.504 | 0.622 | 0.45 | 0.434 |
| NCI-H23 | 1.14 | 0.709 | 0.858 | 0.991 | 1.1 | 0.23 | 0.204 | 0.218 | 0.209 | 0.221 | 0.819 | 0.781 | 0.855 | 0.773 | 0.734 | 0.287 | 0.346 | 0.402 | 0.415 | 0.376 |
| NCI-H1437 | 1.16 | 0.997 | 1.19 | 1.02 | 1.15 | 1.2 | 1.21 | 1.16 | 1.15 | 1.2 | 0.41 | 0.294 | 0.328 | 0.394 | 0.304 | 0.477 | 0.486 | 0.423 | 0.423 | 0.486 |
| SK-MES-1 | 1.26 | 1.12 | 1.3 | – | 1.04 | 0.725 | 0.563 | 0.694 | 0.836 | 0.601 | 0.635 | 0.625 | 0.667 | 0.573 | 0.533 | 0.55 | 0.56 | 0.477 | 0.519 | 0.483 |
| NCI-H2405 | 0.993 | 0.989 | 0.929 | 0.892 | 0.984 | 0.639 | 0.591 | 0.794 | 0.885 | 0.522 | 0.437 | 0.386 | 0.418 | 0.389 | 0.489 | 0.613 | 0.618 | 0.612 | 0.705 | 0.581 |
| NCI-H2023 | 1.1 | 0.977 | 0.984 | 1.04 | 0.967 | 0.656 | 0.77 | 0.74 | 0.929 | 0.614 | 0.51 | 0.403 | 0.496 | 0.409 | 0.436 | 0.493 | 0.447 | 0.489 | 0.634 | 0.548 |
| NCI-H838 | 1.35 | 1.07 | 1.24 | 1.1 | 1.25 | 0.406 | 0.372 | 0.245 | 0.347 | 0.268 | 0.857 | 0.576 | 0.524 | 0.517 | 0.666 | 0.493 | 0.549 | 0.506 | 0.56 | 0.411 |
| NCI-H1734 | 1.1 | 0.834 | 0.781 | 0.844 | 1.02 | 0.227 | 0.259 | 0.214 | 0.17 | 0.18 | 0.394 | 0.371 | 0.371 | 0.412 | 0.368 | 0.599 | 0.611 | 0.599 | 0.587 | 0.514 |
| NCI-H1650 | 1.37 | 1.26 | 1.12 | 1.09 | 1.34 | 0.186 | 0.171 | 0.195 | 0.176 | 0.209 | 0.564 | 0.346 | 0.424 | 0.512 | 0.364 | 0.612 | 0.665 | 0.734 | 0.763 | 0.496 |
| NCI-H596 | 0.969 | 1.08 | 0.985 | 0.894 | 1.16 | 0.927 | 1 | 1 | 0.994 | 0.842 | 0.906 | 0.829 | 0.668 | 0.817 | 0.787 | 0.802 | 0.845 | 0.915 | 0.852 | 0.806 |
| NCI-H1944 | 1.07 | 0.899 | 1.1 | 1.07 | 1.02 | 0.626 | 0.777 | 0.718 | 0.769 | 0.655 | 0.212 | 0.186 | 0.189 | 0.219 | 0.176 | 0.387 | 0.343 | 0.43 | 0.419 | 0.396 |
| LK-2 | 0.983 | 0.881 | 0.81 | 1.05 | 1.17 | 0.219 | 0.202 | 0.177 | 0.158 | 0.169 | 0.408 | 0.456 | 0.421 | 0.43 | 0.438 | 0.587 | 0.727 | 0.715 | 0.31 | 0.647 |
| HCC-15 | 0.693 | 0.65 | 0.642 | 0.725 | 0.748 | 0.472 | 0.425 | 0.444 | – | 0.201 | 0.634 | 0.343 | 0.469 | 0.477 | 0.583 | 0.341 | 0.306 | 0.331 | 0.293 | 0.292 |
| NCI-H727 | 0.447 | 0.377 | 0.442 | 0.614 | 0.556 | 0.363 | 0.312 | 0.342 | 0.306 | 0.225 | 0.591 | 0.556 | 0.641 | 0.498 | 0.504 | 0.389 | 0.395 | 0.406 | 0.4 | 0.32 |
| HOP-62 | 1.08 | 0.9 | 1 | 0.943 | 1.34 | 0.957 | 1.04 | 1.07 | 0.931 | 0.797 | 0.79 | 0.582 | 0.679 | 0.636 | 0.645 | 0.411 | 0.349 | 0.464 | 0.423 | 0.468 |
| NCI-H3122 | 0.994 | 0.998 | 1.01 | 1.12 | 1.02 | 0.11 | 0.0996 | 0.108 | 0.0726 | 0.092 | 0.442 | 0.38 | 0.389 | 0.31 | 0.362 | 0.26 | 0.206 | 0.216 | 0.219 | 0.279 |
